Results as given in paper PMC10376843, “Discovery of Novel Myristic Acid Derivatives as N-Myristoyltransferase Inhibitors: Design, Synthesis, Analysis, Computational Studies and Antifungal Activity” (Antibiotics, 2023).
Converted amounts (≈) assume the structure as drawn. Read-outs that look alike come from different tables or passages of the source.

Experiments:
[1] = biological target: N-Myristoyltransferase (NMT); assay: in vitro biochemical NMT inhibition assay (fluorescence detection of CoA); conditions: 0.1 nM to 10,000 nM; excitation 380 nm, emission 470 nm
Description: The potency of the myristic acid derivatives was determined via an in vitro NMT assay. Coenzyme A (CoA) was detected as a byproduct of an enzymatic reaction. Fluorescence was measured at an excitation wavelength of 380 nm and an emission wavelength of 470 nm. In this assay, the intensity of fluorescence was […], giving a signal (Figure 7).
The NMT protein used in the study was from the supplier Ray Biotech. The assay was performed in 96-well black PP microplates with the myristic acid derivatives in concentrations ranging from 0.1 nM to 10,000 nM. The solutions were prepared in a buffer containing 20 mM of potassium phosphate (pH 7.9–8.0) and 0.5 mM of ethylenediaminetetraacetic acid (EDTA), 0.1% (v/v) Triton X-100, and a final concentration of 2.7% (v/v) dimethyl sulfoxide (DMSO). Fluorescence was measured at an excitation wavelength of 380 nm and an emission wavelength of 470 nm. These readings were obtained on an EnSight Multimode Microplate Reader, and we plotted the response vs. concentration (log nM), ranging from 0.1 nM to 10,000 nM, to obtain the IC50 values using Graph Pad Prism, according to the reported standard procedure.

[2] = test system: Candida albicans (ATCC 10231); assay: antifungal micro-broth dilution assay, C. albicans; assay type: cell-based; conditions: ATCC10231, 48 h
Description: (§1) A microbroth dilution method was used to test the synthesized compounds. In vitro tests for antifungal activity against Candida albicans (C. albicans) and Aspergillus niger (A. niger) were carried out in triplicate at concentrations ranging from 100 μg/mL to 6.25 μg/mL. The percentage cytotoxicity and MIC50 value for each compound were calculated from the observed absorbance measured at 590 nm, and the results are shown in Table 5. Fluconazole was used as a reference drug, and the antifungal activities were expressed as minimum inhibitory concentration (MIC50) values in μg/mL.
(§2) From HIMEDIA M210 Mumbai, India, test fungal strains were acquired. The conventional micro-broth dilution method was used to test the in vitro antifungal activity of the synthesized compounds against the fungi Candida albicans (ATCC 10231) and Aspergillus niger (ATCC 16888) from the American Type Culture Collection. The acquired fungal strains were used in the current experiment after being subcultured in SDB (Sabouraud dextrose broth). The 48 h young cultures were created and kept at 26 °C before the experiment.
(§3) According to the CLSI’s standard M27 recommended methodology, the SDB was treated with the compounds, which were dissolved in DMSO via the serial dilution method in sterile circumstances to achieve the necessary concentration levels. All the cultures that had been exposed to the compounds were serially diluted twice in growth media, inoculated to about 1 × 10^5 CFU/mL and incubated at 26 °C for 48 h. Subsequently, using a UV spectrophotometer, the absorbance at 590 nm of each culture was determined. The formula was used to compute the viability percentage.
(§4) Percentage viability = ([…]) × 100
(§5) The percentage inhibition was calculated using the formula (100 - cell viability) and plotted in the graph to determine the MIC50 value for each compound (Figure 8) and (Figure 9).
(§6) GraphPad Prism 8.0.2 software (San Diego, CA, USA) was used for statistical analysis. The MIC50 value was established via a nonlinear regression analysis.

[3] = test system: Aspergillus niger (ATCC 16888); assay: antifungal micro-broth dilution assay, A. niger; assay type: cell-based; conditions: read-out: MIC50 A. niger
Description: as §1, §2, §3, §4, §5, §6

[4] = ATCC 10231, 26 °C, 100 to 6.25 μg/mL, absorbance 590 nm, read-out: MIC50 C. albicans
[5] = ATCC16888, ATCC 16888, 48 h, 26 °C, 100 to 6.25 μg/mL, absorbance 590 nm

Compound | IC50 [1] [nM] | IC50 [2, 4] [µg/mL] | IC50 [3, 5] [µg/mL] | IC50 ([2]; read-out: MIC50 C. albicans, ATCC 10231, 26 °C, 100 to 6.25 μg/mL, absorbance 590 nm) [µg/mL] | IC50 ([3]; ATCC16888, 48 h) [µg/mL]
CCCCCCCCCCCCCC(=O)NC1CCCCC1 [Compound 3m, N-cyclohexyltetradecanamide] | 863 | – | – | 15 to 22 (≈ 48.5 to 71.1 µM) | 14.7 (≈ 47.4 µM)
CCCCCCCCCCCCCC(=O)N1CCOCC1 [Compound 3n, 1-morpholinotetradeca-1-one] | > 1500 | 27.6 (≈ 92.8 µM) | 31.4 (≈ 106 µM) | – | –
CCCCCCCCCCCCCC(=O)N(C)c1ccccc1 [Compound 3o, N-methyl-N-phenyltetradecanamide] | > 1500 | 15 to 22 (≈ 47.2 to 69.3 µM) | 94.2 (≈ 297 µM) | – | –
CCCCCCCCCCCCCC(=O)Nc1ccccc1 [Compound 3p, N-phenyltetradecanamide] | > 1500 | 15 to 22 (≈ 49.4 to 72.5 µM) | 24.8 (≈ 81.6 µM) | – | –
CCCCCCCCCCCCCC(=O)Nc1ccc(O)cc1 [Compound 3t, N-(4-hydroxyphenyl) tetradecanamide] | 1000 | 12.9 (≈ 40.5 µM) | 17.4 (≈ 54.5 µM) | – | –
CCCCCCCCCCCCCC(=O)Nc1ccccn1 [Compound 3u, N-(pyridine-2-yl) tetradecanamide] | 835 | 10.6 (≈ 34.9 µM) | 14.4 (≈ 47.2 µM) | – | –
CCCCCCCCCCCCCC(=O)Nc1nc(C)cs1 [Compound 3v, N-(4-methylthiazol-2-yl) tetradecanamide] | > 1500 | 32.4 (≈ 99.8 µM) | 22.1 (≈ 68.3 µM) | – | –
OC(Cn1cncn1)(Cn1cncn1)c1ccc(F)cc1F [FLZ, Fluconazole, reference compound] | – | 17.8 (≈ 58 µM) | 16.3 (≈ 53.2 µM) | – | –
CCCCCCCCCCCCCC(=O)O [Myristic acid] | 4210 | – | – | – | –

The next lines start with results.

IC50 [1] [nM] | IC50 [2, 4] [µg/mL] | IC50 [3, 5] [µg/mL] | Compound | IC50 ([2]; read-out: MIC50 C. albicans, ATCC 10231, 26 °C, 100 to 6.25 μg/mL, absorbance 590 nm) [µg/mL] | IC50 ([3]; ATCC16888, 48 h) [µg/mL]
1290 | 10.8 (≈ 33.9 µM) | 59.6 (≈ 188 µM) | CCCCCCCCCCCCCC(=O)Nc1cccc(C)c1 [Compound 3k, N-(m-tolyl) tetradecanamide] | – | –
> 1500 | 15 to 22 (≈ 43.2 to 63.3 µM) | 75.9 (≈ 218 µM) | CCCCCCCCCCCCCC(=O)Nc1ccc(OCC)cc1 [Compound 3l, N-(4-ethoxyphenyl) tetradecanamide] | – | –
> 1500 | 28.4 (≈ 85.7 µM) | 28.5 (≈ 86.1 µM) | CCCCCCCCCCCCCC(=O)N(CC)c1ccccc1 [Compound 3q, N-ethyl-N-phenyltetradecanamide] | – | –
1460 | 11.9 (≈ 37 µM) | 15.4 (≈ 48 µM) | CCCCCCCCCCCCCC(=O)Nc1ccc(F)cc1 [Compound 3r, N-(4-fluorophenyl) tetradecanamide] | – | –
> 1500 | 38.8 (≈ 104 µM) | 34.3 (≈ 92.3 µM) | CCCCCCCCCCCCCC(=O)Nc1ccc(C(F)(F)F)cc1 [Compound 3s, N-(4-(trifluoromethyl)phenyl)tetradecanamide] | – | –
